# What was measured:
# [1] = tested on: BB49-HNC (Head and Neck Carcinoma); assay: Bliss excess, mean over the matrix (fraction); higher = more synergy
# How it was run: (§1)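 Bliss excess equals the observed combination effect minus the expected value EA + EB − EA·EB, where EA and EB are the effects of each agent alone. Combination Emax is the second-highest inhibition within the matrix. Inhibition was scaled from CellTiter-Glo 2.0 luminescence, with 0 set by vehicle wells and 1 by blank wells, after 72 hours of two-drug dosing of cells plated in 1536-well plates.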
# [2] = tested on: NB(TU)1-10 (Neuroblastoma); assay: as above
# How it was run: as §1
# [3] = tested on: NCI-H211 (Small Cell Lung Carcinoma); assay: as above
# How it was run: as §1
# [4] = tested on: BB49-HNC (Head and Neck Carcinoma); assay: combination Emax (second highest fraction inhibited in the dose matrix, 72 h); higher = more inhibition; extreme values may be limits of the assay
# How it was run: as §1
# ES7 (Ewing's Sarcoma) = assay: as above
# How it was run: as §1
# [5] = tested on: KATOIII (Gastric Carcinoma); assay: as above
# How it was run: as §1
# [6] = tested on: NB(TU)1-10 (Neuroblastoma); assay: as above
# How it was run: as §1
# [7] = tested on: NCI-H211 (Small Cell Lung Carcinoma); assay: as above
# How it was run: as §1
Compound,Bliss excess [1],Bliss excess [2],Bliss excess [3],combination Emax [4],combination Emax (ES7 (Ewing's Sarcoma)),combination Emax [5],combination Emax [6],combination Emax [7]
"CN(C)CCCOc1ccc(-c2ccc3ncc4c(c3c2)n(C2CCOCC2)c(=O)n4C)cn1 [AZD0156] + O=C(c1cc(Cc2n[nH]c(=O)c3ccccc23)ccc1F)N1CCN(C(=O)C2CC2)CC1 [Olaparib] (first compound max 3 µM, partner max 3 µM)",0.165,-0.037,0.0397,0.598,0.853,0.195,0.356,0.598
"C=CCn1c(=O)c2cnc(Nc3ccc(N4CCN(C)CC4)cc3)nc2n1-c1cccc(C(C)(C)O)n1 [AZD1775] + C1CN(CCC1(C(=O)N[C@@H](CCO)C2=CC=C(C=C2)Cl)N)C3=NC=NC4=C3C=CN4 [Capivasertib] (first compound max 3 µM, partner max 3 µM)",-0.0204,-0.0584,-0.0643,0.936,0.808,0.476,0.583,0.901
"CN(C)CCCOc1ccc(-c2ccc3ncc4c(c3c2)n(C2CCOCC2)c(=O)n4C)cn1 [AZD0156] + C=CCn1c(=O)c2cnc(Nc3ccc(N4CCN(C)CC4)cc3)nc2n1-c1cccc(C(C)(C)O)n1 [AZD1775] (first compound max 1 µM, partner max 1 µM)",–,0.014,–,–,0.542,0.213,0.857,–
"CCc1c2c(nc3ccc(O)cc13)-c1cc3c(c(=O)n1C2)COC(=O)[C@]3(O)CC [SN-38] + CN(C)CCCOc1ccc(-c2ccc3ncc4c(c3c2)n(C2CCOCC2)c(=O)n4C)cn1 [AZD0156] (first compound max 0.3 µM, 7x7, partner max 1 µM)",–,-0.0787,–,–,1,0.16,0.805,–
"CN(C)CCCOc1ccc(-c2ccc3ncc4c(c3c2)n(C2CCOCC2)c(=O)n4C)cn1 [AZD0156] + C[C@@H]1COCCN1C2=NC(=NC(=C2)C3(CC3)[S@](=N)(=O)C)C4=C5C=CNC5=NC=C4 [AZD6738] (first compound max 1 µM, 7x7, partner max 10 µM)",–,-0.0026,–,–,0.846,0.519,0.798,–

# — the supplement of paper PMC11061612
